For 19 compounds, IC50 and inhibition results are on record in ChEMBL document CHEMBL5543075, “Phenoxytacrine derivatives: Low-toxicity neuroprotectants exerting affinity to ifenprodil-binding site and cholinesterase inhibition” (Eur J Med Chem, 2024).

One data set has as its target Cholinesterase (Homo sapiens, UniProt P06276). The data set is described as follows: Inhibition of human BChE by spectrophotometric Ellman's method. (Ellman's reagent forms a yellow product with free thiols.)
The nature of data set [1]: Cytotoxicity against CHO-K1 cells incubated for 24 hrs by MTT assay. Type of data set: toxicity, cell-based, Cricetulus griseus. As to conditions: Chinese hamster. (Tetrazolium dyes change colour on reduction, which living cells bring about.)
The target in another data set is Acetylcholinesterase (Homo sapiens, UniProt P22303). In words: Inhibition of human AChE by spectrophotometric Ellman's method.
Chain of Acetylcholinesterase (P22303 whole entry): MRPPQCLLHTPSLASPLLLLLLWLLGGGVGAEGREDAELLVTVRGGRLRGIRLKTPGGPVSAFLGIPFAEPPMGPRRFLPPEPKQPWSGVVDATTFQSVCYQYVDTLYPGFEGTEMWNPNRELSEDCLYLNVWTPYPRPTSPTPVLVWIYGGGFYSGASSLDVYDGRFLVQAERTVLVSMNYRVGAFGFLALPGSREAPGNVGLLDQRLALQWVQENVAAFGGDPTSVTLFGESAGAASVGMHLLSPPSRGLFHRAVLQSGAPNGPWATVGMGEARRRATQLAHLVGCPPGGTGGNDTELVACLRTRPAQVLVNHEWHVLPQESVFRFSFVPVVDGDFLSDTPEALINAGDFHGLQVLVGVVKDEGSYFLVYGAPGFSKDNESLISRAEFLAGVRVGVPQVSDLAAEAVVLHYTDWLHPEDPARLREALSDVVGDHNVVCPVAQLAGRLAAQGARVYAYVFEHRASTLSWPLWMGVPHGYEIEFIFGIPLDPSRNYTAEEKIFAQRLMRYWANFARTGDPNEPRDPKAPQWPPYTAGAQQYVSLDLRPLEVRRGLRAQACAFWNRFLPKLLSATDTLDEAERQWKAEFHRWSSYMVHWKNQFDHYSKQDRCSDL
In data set [2] the target is Glutamate NMDA receptor; GRIN1/GRIN2B (Homo sapiens, UniProt Q05586+Q13224). In words: Inhibition of recombinant human GluN1/GluN2B receptor expressed in HEK293 cells assessed as reduction in glutamate induced current at 1 uM at -60 mV holding potential by electrophysiology assay relative to control. The data set is classed as cell-based.

Chain of Cholinesterase (P06276 whole entry): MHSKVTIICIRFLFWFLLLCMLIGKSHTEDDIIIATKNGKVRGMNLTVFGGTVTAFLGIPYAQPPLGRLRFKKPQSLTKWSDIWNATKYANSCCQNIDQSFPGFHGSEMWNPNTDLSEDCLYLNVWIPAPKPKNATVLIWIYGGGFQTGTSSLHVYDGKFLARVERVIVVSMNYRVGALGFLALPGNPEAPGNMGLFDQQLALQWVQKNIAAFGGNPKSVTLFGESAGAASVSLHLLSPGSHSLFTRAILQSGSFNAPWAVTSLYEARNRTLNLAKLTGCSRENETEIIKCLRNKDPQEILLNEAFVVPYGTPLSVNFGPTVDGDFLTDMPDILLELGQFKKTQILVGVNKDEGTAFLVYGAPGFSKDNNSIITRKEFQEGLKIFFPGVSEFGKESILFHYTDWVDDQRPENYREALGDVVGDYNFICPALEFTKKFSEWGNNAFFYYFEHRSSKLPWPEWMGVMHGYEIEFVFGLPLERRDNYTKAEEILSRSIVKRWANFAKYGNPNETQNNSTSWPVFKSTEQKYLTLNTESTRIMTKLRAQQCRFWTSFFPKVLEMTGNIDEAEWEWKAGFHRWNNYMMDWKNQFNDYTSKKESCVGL

The IC50 is the concentration at which inhibition is half-maximal. What is called inhibition is the percentage by which the read-out fell short of the control. Take `Cc1cc(C)cc(Oc2ccc3nc4c(c(N)c3c2)CCCC4)c1`: the half-maximal inhibitory concentration (IC50) against Cholinesterase was 3.88 µM; at Acetylcholinesterase, 1.62 µM. Further, half-maximal inhibition in data set [1] (IC50 at 24 h) was put at 13 µM. Moreover, the inhibition in data set [2] was found to be 8.2%.
The matching figures for `Nc1c2c(nc3ccc(Oc4ccc(Cl)cc4)cc13)CCCCC2`: 1.85 µM, 4.22 µM, 90 µM and 12%.
For `COc1cccc(Oc2ccc3nc4c(c(N)c3c2)CCC4)c1`, in that order: 7.96 µM, 5.25 µM, 85 µM and 16%.
The matching figures for `Cc1cccc(Oc2ccc3nc4c(c(N)c3c2)CCC4)c1`: 2.81 µM, 5.28 µM, 34 µM and 18.1%.
With `COc1cccc(Oc2ccc3nc4c(c(N)c3c2)CCCC4)c1`, the IC50 against Cholinesterase was 2.76 µM; on Acetylcholinesterase it was 2.64 µM. Also, in data set [1], the 50% inhibitory concentration (IC50) at 24 h was 27 µM. For the same compound, in data set [2], the inhibition came to 14.7%.
For `Cc1cccc(Oc2ccc3nc4c(c(N)c3c2)CCCC4)c1`, in that order: 3.66 µM, 9.19 µM, 20 µM and 21.2%.
The matching figures for `Cc1ccc(Oc2ccc3nc4c(c(N)c3c2)CCCCC4)cc1`: 2.78 µM, 3.79 µM, 140 µM and 11.9%.
For `COc1ccc(Oc2ccc3nc4c(c(N)c3c2)CCC4)cc1`, in that order: 14.5 µM, 4.24 µM, 81 µM and 22.7%.
On to `COc1cccc(Oc2ccc3nc4c(c(N)c3c2)CCCCC4)c1`, for which the IC50 at Cholinesterase is 2.62 µM; at Acetylcholinesterase it was 4.25 µM. Moreover, the IC50 at 24 h in data set [1] came out at 21 µM. Also, the inhibition in data set [2] was 7.1%.
The matching figures for `Cc1ccccc1Oc1ccc2nc3c(c(N)c2c1)CCCCC3`: 4.17 µM, 5.8 µM, 26 µM and 8.8%.
The matching figures for `COc1ccccc1Oc1ccc2nc3c(c(N)c2c1)CCCCC3`: 5.48 µM, 9.62 µM, 74 µM and 57.6%.
For `Nc1c2c(nc3ccc(Oc4ccccc4)cc13)CCC2`, in that order: 2.93 µM, 6.42 µM, 55 µM and 30.3%.
Consider `Cc1ccc(Oc2ccc3nc4c(c(N)c3c2)CCC4)cc1`, for which the IC50 was 7.34 µM on Cholinesterase and 8.36 µM against Acetylcholinesterase. In data set [1], this compound came in with an IC50 at 24 h of 76 µM. For the same compound, the inhibition in data set [2] came to 18.7%.
The matching figures for `Cc1cccc(Oc2ccc3nc4c(c(N)c3c2)CCCCC4)c1`: 2.74 µM, 12.3 µM, 13 µM and 14.8%.
For `CC(C)(C)c1ccc(Oc2ccc3nc4c(c(N)c3c2)CCC4)cc1`, in that order: 3.11 µM, 2.78 µM, 11 µM and 6.7%.
For `CC(C)(C)c1ccc(Oc2ccc3nc4c(c(N)c3c2)CCCCC4)cc1`, in that order: 2.51 µM, 71.6 µM, 9 µM and 10.1%.
For the compound `Nc1c2c(nc3ccc(Oc4ccc(Cl)cc4)cc13)CCC2`, the IC50 is 3.6 µM on Cholinesterase and 5.07 µM against Acetylcholinesterase. In addition, the IC50 at 24 h in data set [1] was 28 µM. Besides, in data set [2], the inhibition came out at 8.7%.
The matching figures for `Cc1cc(C)cc(Oc2ccc3nc4c(c(N)c3c2)CCC4)c1`: 5.48 µM, 3.72 µM, 39 µM and 9.6%.
For `COc1ccc(Oc2ccc3nc4c(c(N)c3c2)CCCCC4)cc1`, in that order: 2.74 µM, 3.63 µM, 28 µM and 29.6%.
